Drawing on PubChem BioAssay AID328 (DTP/NCI, 2004), this text covers T/C for 10 molecules.

For the experiment, the system named is BDF1 mice, P388 leukemia ip, median survival T/C. The experiment in a line: NCI In Vivo Anticancer Drug Screen. Data for tumor model P388 Leukemia (intraperitoneal) in B6D2F1 (BDF1) mice. Conditions: endpoint: median survival time, higher = longer survival. In short, it runs like this:
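T/C = treated-group survival ÷ vehicle-control survival; tumour transplanted into mice before dosing.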

Setting [1] is: dose: 100.0 mg/kg/injection, schedule: Q01DX009 (ip), vehicle: Klucel (hydroxypropylcellulose) (HPC).
Where [2] appears, read: dose: 100.0 mg/kg/injection, schedule: Q04DX003 (ip), vehicle: Klucel (hydroxypropylcellulose) (HPC).
[3] abbreviates: dose: 200.0 mg/kg/injection, schedule: Q04DX003 (ip), vehicle: Klucel (hydroxypropylcellulose) (HPC).
[4] abbreviates: dose: 400.0 mg/kg/injection, schedule: Q01DX009 (ip), vehicle: Klucel (hydroxypropylcellulose) (HPC).
The mark [5] stands for this setting: dose: 400.0 mg/kg/injection, schedule: Q04DX003 (ip), vehicle: Klucel (hydroxypropylcellulose) (HPC).
The mark [6] stands for this setting: dose: 25.0 mg/kg/injection, schedule: Q01DX009 (ip), vehicle: saline with Tween-80.
Where [7] appears, read: dose: 50.0 mg/kg/injection, schedule: Q01DX009 (ip), vehicle: saline with Tween-80.
Setting [8] is: dose: 100.0 mg/kg/injection, schedule: Q01DX009 (ip), vehicle: saline with Tween-80.

The structures appear in SMILES notation. Where “and” joins values, the source holds several entries; their conditions need not be identical. Equal entries are not always repeated. Inconclusive results and toxic doses are left out.

As to `CCOC12CC(OC(=O)N1)C(C)C1OC1(C)C(OC(=O)C(C)N(C)C(C)=O)CC(=O)N(C)c1cc(cc(OC)c1Cl)C/C(C)=C/C=CC2OC` (stereo not given), the T/C (dose: 1.6 micrograms/kg/injection, schedule: Q01DX009 (ip), vehicle: saline + alcohol) was 99 % of control; the T/C (dose: 3.1 micrograms/kg/injection, schedule: Q01DX009 (ip), vehicle: saline + alcohol) was 99 % of control; the T/C (dose: 6.2 micrograms/kg/injection, schedule: Q01DX009 (ip), vehicle: saline + alcohol) is 99 % of control; the T/C (dose: 12.5 micrograms/kg/injection, schedule: Q01DX009 (ip), vehicle: saline + alcohol) is 101 % of control; the T/C (dose: 25.0 micrograms/kg/injection, schedule: Q01DX009 (ip), vehicle: saline + alcohol) was 116 % of control; the T/C (dose: 50.0 micrograms/kg/injection, schedule: Q01DX009 (ip), vehicle: saline + alcohol) was 98 % of control. Besides, the T/C is 105 % of control (dose: 100.0 micrograms/kg/injection, schedule: Q01DX009 (ip), vehicle: saline + alcohol); 98 % of control (dose: 200.0 micrograms/kg/injection, schedule: Q01DX009 (ip), vehicle: saline + alcohol); 100 % of control (dose: 400.0 micrograms/kg/injection, schedule: Q01DX009 (ip), vehicle: saline + alcohol).
Consider `CC12CCC(O)CC1CCC1C2CCC2(C)C(c3ccc(=O)oc3)C(O)C3OC132` (stereo not given), for which the T/C is, setting by setting: (dose: 3.5 mg/kg/injection, schedule: Q01DX009 (ip), vehicle: Klucel (hydroxypropylcellulose) (HPC)) 100 % of control; (dose: 7.0 mg/kg/injection, schedule: Q01DX009 (ip), vehicle: Klucel (hydroxypropylcellulose) (HPC)) 102 % of control.
As to `O=C(/C=C\c1ccc(O)cc1)c1ccccc1`, the T/C reads like this: under setting [1], 105 % of control; under setting [2], 108 % of control; (dose: 200.0 mg/kg/injection, schedule: Q01DX009 (ip), vehicle: Klucel (hydroxypropylcellulose) (HPC)) 110 % of control; under setting [3], 100 % of control; under setting [4], 110 % of control; under setting [5], 104 % of control.
Turning to `O=[N+]([O-])c1ccc(S(=O)(=O)OCc2ccccc2OS(=O)(=O)c2ccc([N+](=O)[O-])cc2)cc1`, the T/C under setting [6] is 109 % of control; the T/C (dose: 25.0 mg/kg/injection, schedule: Q04DX003 (ip), vehicle: Klucel (hydroxypropylcellulose) (HPC)) is 110 % of control; the T/C under setting [7] is 114 % of control; the T/C (dose: 50.0 mg/kg/injection, schedule: Q04DX003 (ip), vehicle: Klucel (hydroxypropylcellulose) (HPC)) was 100 % of control; the T/C under setting [8] was 114 % of control; the T/C under setting [2] was 95 % of control.
In the case of `O=[Se](=O)(c1ccccc1)c1ccccc1`, the T/C by setting is: (dose: 100.0 mg/kg/injection, schedule: Q04DX002 (ip), vehicle: saline with Tween-80) 97 % of control; (dose: 200.0 mg/kg/injection, schedule: Q04DX002 (ip), vehicle: saline with Tween-80) 103 % of control; (dose: 400.0 mg/kg/injection, schedule: Q04DX002 (ip), vehicle: saline with Tween-80) 94 % of control.
Take `C[C@]12CC[C@@H]3c4ccc(O)cc4CC[C@H]3[C@@H]1CC[C@@H]2O`: the T/C reads like this: under setting [1], 90 % of control; under setting [2], 100 % of control; under setting [3], 100 % of control; under setting [4], 95 % of control; under setting [5], 115 % of control.
Take `C[C@@H]1C[C@@H]([C@H](O)CC2CC(=O)NC(=O)C2)C(=O)[C@@H](C)C1`: the T/C runs as follows: (dose: 5.0 mg/kg/injection, schedule: Q01DX010 (ip), vehicle: saline) 100 % of control and 104 % of control; (dose: 10.0 mg/kg/injection, schedule: Q01DX010 (ip), vehicle: saline) 90 % of control and 114 % of control; (dose: 15.0 mg/kg/injection, schedule: Q01DX009 (ip), vehicle: Klucel (hydroxypropylcellulose) (HPC)) 100 % of control; (dose: 20.0 mg/kg/injection, schedule: Q01DX010 (ip), vehicle: saline) 100 % of control (2×) and 119 % of control; (dose: 30.0 mg/kg/injection, schedule: Q01DX009 (ip), vehicle: Klucel (hydroxypropylcellulose) (HPC)) 90 % of control; (dose: 39.9 mg/kg/injection, schedule: Q04DX003 (ip), vehicle: Klucel (hydroxypropylcellulose) (HPC)) 114 % of control. The T/C (dose: 39.9 mg/kg/injection, schedule: Q04DX003 (sc), vehicle: Klucel (hydroxypropylcellulose) (HPC)) is 110 % of control; the T/C (dose: 40.0 mg/kg/injection, schedule: Q01DX010 (ip), vehicle: saline) is 115 % of control and 118 % of control; the T/C (dose: 50.0 mg/kg/injection, schedule: Q04DX003 (ip), vehicle: other) is 121 % of control; the T/C (dose: 60.0 mg/kg/injection, schedule: Q01DX009 (ip), vehicle: Klucel (hydroxypropylcellulose) (HPC)) was 90 % of control; the T/C (dose: 60.0 mg/kg/injection, schedule: Q01DX010 (ip), vehicle: saline) was 168 % of control; the T/C (dose: 60.0 mg/kg/injection, schedule: Q04DX003 (ip), vehicle: Klucel (hydroxypropylcellulose) (HPC)) is 118 % of control. Moreover, the T/C is 108 % of control (dose: 64.8 mg/kg/injection, schedule: Q01DX001 (sc), vehicle: Klucel (hydroxypropylcellulose) (HPC)); 119 % of control (dose: 64.8 mg/kg/injection, schedule: Q04DX003 (ip), vehicle: Klucel (hydroxypropylcellulose) (HPC)); 107 % of control (dose: 64.8 mg/kg/injection, schedule: Q04DX003 (sc), vehicle: Klucel (hydroxypropylcellulose) (HPC)); 178 % of control (dose: 100.0 mg/kg/injection, schedule: Q04DX003 (ip), vehicle: other); 109 % of control (dose: 108.0 mg/kg/injection, schedule: Q01DX001 (ip), vehicle: Klucel (hydroxypropylcellulose) (HPC)); 110 % of control (dose: 108.0 mg/kg/injection, schedule: Q01DX001 (sc), vehicle: Klucel (hydroxypropylcellulose) (HPC)). For the same molecule, the T/C by setting is: (dose: 108.0 mg/kg/injection, schedule: Q04DX003 (ip), vehicle: Klucel (hydroxypropylcellulose) (HPC)) 118 % of control; (dose: 108.0 mg/kg/injection, schedule: Q04DX003 (sc), vehicle: Klucel (hydroxypropylcellulose) (HPC)) 96 % of control; (dose: 120.0 mg/kg/injection, schedule: Q04DX003 (ip), vehicle: Klucel (hydroxypropylcellulose) (HPC)) 90 % of control; (dose: 180.0 mg/kg/injection, schedule: Q01DX001 (ip), vehicle: Klucel (hydroxypropylcellulose) (HPC)) 108 % of control; (dose: 180.0 mg/kg/injection, schedule: Q01DX001 (sc), vehicle: Klucel (hydroxypropylcellulose) (HPC)) 116 % of control; (dose: 180.0 mg/kg/injection, schedule: Q04DX003 (ip), vehicle: Klucel (hydroxypropylcellulose) (HPC)) 98 % of control. For the same molecule, the T/C was 97 % of control (dose: 200.0 mg/kg/injection, schedule: Q04DX003 (ip), vehicle: other); 114 % of control (dose: 300.0 mg/kg/injection, schedule: Q01DX001 (ip), vehicle: Klucel (hydroxypropylcellulose) (HPC)); 118 % of control (dose: 300.0 mg/kg/injection, schedule: Q01DX001 (sc), vehicle: Klucel (hydroxypropylcellulose) (HPC)).
Regarding `[I][Hg][CH2]C1COC([CH2][Hg][I])CO1` (stereo not given), the T/C is, setting by setting: (dose: 0.78 mg/kg/injection, schedule: Q01DX010 (ip), vehicle: saline) 95 % of control; (dose: 1.56 mg/kg/injection, schedule: Q01DX010 (ip), vehicle: saline) 95 % of control and 118 % of control; (dose: 3.13 mg/kg/injection, schedule: Q01DX010 (ip), vehicle: saline) 100 % of control and 122 % of control; (dose: 6.25 mg/kg/injection, schedule: Q01DX010 (ip), vehicle: saline) 122 % of control; (dose: 12.5 mg/kg/injection, schedule: Q01DX010 (ip), vehicle: saline) 118 % of control.
`O=C(CCCCl)CC(O)(C(F)(F)F)C(F)(F)F`: the T/C runs as follows: (dose: 12.5 mg/kg/injection, schedule: Q01DX009 (ip), vehicle: saline with Tween-80) 95 % of control; under setting [6], 100 % of control; under setting [7], 115 % of control; under setting [8], 104 % of control.
With `COC(=N)CCCCCC(=N)OC`, the T/C (dose: 50.0 mg/kg/injection, schedule: Q01DX005 (ip), vehicle: saline) is 92 % of control; the T/C (dose: 100.0 mg/kg/injection, schedule: Q01DX005 (ip), vehicle: saline) is 97 % of control; the T/C (dose: 200.0 mg/kg/injection, schedule: Q01DX005 (ip), vehicle: saline) was 87 % of control.
